Test results published in patent publication US20160022757A1, “THERAPEUTIC METHODS FOR TREATING SOLID TUMORS AND RELATED DIAGNOSTIC METHODS” (ICAHN SCHOOL OF MEDICINE AT MOUNT SINAI, priority 2013, published 2016).
Entries after “also recorded” stand apart in the source; their conditions may differ.

How the values were obtained:
[1] = test system: ras^G12V p53^RNAi pten^RNAi apc^RNAi animals (adult hindgut); test: Dissemination (distant migration) after compound feeding, four-hit model; type: in vivo, Drosophila; details: for dissemination in combination with bortezomib: fed together with low non-toxic bortezomib (1 μM); for distant migration (dissemination into the abdominal cavity): four-hit model ras^G12V p53^RNAi pten^RNAi apc^RNAi, compounds fed for one week, single agent
Procedure: (§1) Targeted expression in the adult hindgut: Multigenic combinations were targeted to the adult hindgut using the hindgut specific gal4 line byn-gal4 (V. Hartenstein) and tub-gal80^ts (Bloomington). Crosses were kept at 16° C. to keep the transgenes silent during development and adult females were transferred to 29° C. to induce transgene expression. In addition, GFP and Dcr2 (Dicer 2) were co-expressed to mark the hindgut cells and to facilitate RNAi-mediated knock-down, respectively.
(§2) Compound Feeding: Compound treated food was made by diluting compound stocks (made in 100% DMSO) in semi-defined Drosophila medium to achieve a final concentration of 0.5% DMSO (empirically determined as the non-toxic DMSO dose in semi-defined Drosophila medium). Adult flies were kept on compound treated medium in standard Drosophila vials for 7 days (30 flies/vial, 1 ml food/vial) and provided with fresh compound food every other day.
Compound Feeding: Compounds used in this study were (stock concentrations and sources in parentheses) AZD6244 (200 mM, Selleck Chemicals), SL327 (200 mM, Tocris), GW5074 (100 mM, Tocris), Sorafenib (200 mM, LC Labs), LY294002 (200 mM, LC Labs), Rapamycin (200 mM, LC Labs), BEZ235 (20 mM, LC Labs), Dasatinib (200 mM, LC Labs), SP600125 (200 mM, LC Labs), Bortezomib (200 mM, LC Labs), Cisplatin (200 mM, Sigma), LBH589 (200 mM, LC Labs), Wortmannin (200 mM, LC Labs), PI-103-HCl (100 mM, Tocris), Everolimus (100 mM, LC Labs) and Enzastaurin (50 mM, LC Labs).
Imaging and Scoring: Fluorescence images were taken using a Leica TCS SPE confocal microscope and processed using the Leica LAS-AF software. Scoring and imaging of SA-β-gal staining was performed using an Olympus BX41 microscope and a Nikon DS-Ri1 camera. Distant migration was imaged and scored using a Leica MZ16F dissecting scope with a GFP filter under 10× magnification.
Statistical Analysis: Statistical significance for the distant migration assay was calculated using Fisher's exact test as this test allows the analysis of contingency tables where sample sizes are relatively small. Use of a 4×2 contingency table allowed pairwise comparisons of the distant migration phenotype, which has four phenotypic categories, between different genotypes and/or treatment conditions. Each experiment was performed in duplicate (n=25-30 for each replicate) and multiple times. Error bars indicate standard error of the mean.
Given the low success rate of drug approvals for colorectal cancer (3) the study herein asked whether differences in genetic complexity influence a tumor model's response to drugs. Sixteen compounds that target key cancer relevant pathways and cellular processes were selected (FIG. 11); many of these compounds are currently in clinical trials including for colorectal cancer (25-27). Commencing the day of transgene induction, animals were fed compounds for one week and then scored for issemination into the abdominal cavity. Final compound concentrations in the media ranged from 1 μM-1 mM, corresponding to approximately 10-200 ng/day/animal based on adult feeding rates (FIG. 11).

[2] = test system: ras^G12V pten^RNAi animals; test: Dissemination after compound feeding, ras^G12V pten^RNAi double; type: in vivo, Drosophila; details: single agent
Procedure: as §1
as §2, with “day. […]” for “day.”
(§3) Imaging and Scoring: Fluorescence images were taken using a Leica TCS SPE confocal microscope and processed using the Leica LAS-AF software. […] Distant migration was imaged and scored using a Leica MZ16F dissecting scope with a GFP filter under 10× magnification.
(§4) Statistical Analysis: Statistical significance for the distant migration assay was calculated using Fisher's exact test as this test allows the analysis of contingency tables where sample sizes are relatively small. […]

HCT116 cells = test: MTT viability assay, HCT116 cells; type: cell-based, human
Procedure: (§5) Cell culture: Parental DLD-1 and HCT-116 cell lines (ATCC) and their PI3K wildtype derivatives (DLD-1 WT and HCT116 WT) (38) that were obtained from Dr. Bert Vogelstein's laboratory were maintained using DMEM with 10% FBS. All experiments were done under low serum (2.5% FBS) conditions (38). MTT assay: Cells were grown in sterile 25 cm^2 flasks to 80% confluency, trypsinized, resuspended in 100 mL DMEM with 2.5% FBS and seeded in 96-well plates in equal numbers. After 24 hours, cells were treated with compounds diluted in DMEM with 2.5% FBS as indicated for 1, 2 or 3 days. MTT assay was performed by replacing compound containing medium with fresh DMEM with 2.5% FBS and 10 mg/ml MTT reagent (Thiazoyl Blue tetrazolium Bromide, Fisher Scientific) in PBS at a ratio of 5:1 (120 μl/well; 96-well plates). Cells are incubated at 37° C. for 3 hours, then the medium is removed and cells are incubated in MTT solvent (4 mM HCl, 0.1% NP40 in isopropanol) on a shaker. The amount of MTT formazan in the resulting solution is spectrophotometrically measured at […] (and a reference filter of 620 nM). Adjusted absorbance value for each well is calculated using the following formula: (OD590SAMPLE-OD590BLANK)−(OD620SAMPLE-OD620BLANK). Each experiment is done in quadruple and relative viability is expressed as fold change in adjusted absorbance compared to untreated and DMSO treated controls in each plate.

[3] = test system: ras^G12V p53^RNAi apc^RNAi animals; test: Dissemination after compound feeding, ras^G12V p53^RNAi apc^RNAi triple; type: in vivo, Drosophila; details: single agent
Procedure: as §1
as §2, with “day. […]” for “day.”
as §3, §4

[4] = test system: PI3K and TORC1 activity (p-4EBP); test: Western blot analysis of PI3K pathway activity in hindguts after compound treatment; type: in vivo, Drosophila; details: four-hit hindguts; for p-4EBP levels: seven days
Excerpt: Western Blot Analysis: Primary antibodies used were rabbit anti-Drosophila phospho-AKT (S505) (1:1000, Cell Signaling), rabbit anti-pan-AKT (1:1000, Cell Signaling), rabbit anti-phospho-4EBP (T37/46) (1:1000, Cell Signaling), rabbit anti-human phospho-AKT (Ser473) (1:1000, Cell Signaling), mouse anti-α-actin (1:1000, Cell Signaling) and mouse anti-Syntaxin (1:1000, DSHB). HRP-conjugated anti-mouse and anti-rabbit antibodies were used as secondary antibodies (1:5000, Cell Signaling). For signal detection, Immobilon Chemiluminescent HRP Substrate (Millipore) was used.
as §2
Western Blot Analysis: Tissue lysates for western analysis were made by grinding 10-20 hindguts in lysis buffer (50 mM Tris-HCl, 150 mM NaCl, 1 mM EDTA, 1% NP-40) supplemented with protease and phosphatase inhibitor cocktails (Sigma). Lysates were boiled for 10 minutes in SDS Sample buffer and reducing agent, resolved on SDS-Page and transferred using standard protocols. Cell lysates are prepared similarly. Protein concentrations were determined using BioRad Protein Assay Dye Reagent following manufacturer's instructions.

DLD-1 cells = test: MTT viability assay, DLD-1 cells; type: cell-based, human; details: for viability after bortezomib pre-treatment alone: doses that sensitize to BEZ235
Procedure: as §5

[5] = test system: ras^G12V animals (adult hindgut); test: Dissemination (distant migration) into the abdominal cavity after compound feeding, ras^G12V model; type: in vivo, Drosophila; details: compounds fed for one week, single agent
Procedure: as §1
as §2, with “day. […]” for “day.”
as §3, §4

[6] = test system: ras^G12V p53^RNAi pten^RNAi apc^RNAi animals; details: Drosophila, in vivo, 7 days
Procedure: Targets, feeding doses and toxicity of compounds. a, List of compounds used for feeding experiments along with their targets, mechanisms of actions and concentrations used in the food. Estimated amount ingested was calculated based on our observations that adult females ingest approximately 0.2 μl of food per day (not shown). Estimated amount of ingested compound was also converted into mg/kg body weight/day using 1.1 mg as the average weight of an adult female. b, Survival curves of ras^G12V p53^RNAi pten^RNAi apc^RNAi animals fed the indicated compounds.

PI3K pathway = test: Western blot of PI3K pathway activation in DLD-1 cells; type: cell-based, human; details: DLD-1 cells treated with bortezomib
Excerpt: Western Blot Analysis: Primary antibodies used were rabbit anti-Drosophila phospho-AKT ([MUT]) (1:1000, Cell Signaling), rabbit anti-pan-AKT (1:1000, Cell Signaling), rabbit anti-phospho-4EBP (T37/46) (1:1000, Cell Signaling), rabbit anti-human phospho-AKT (Ser473) (1:1000, Cell Signaling), mouse anti-α-actin (1:1000, Cell Signaling) and mouse anti-Syntaxin (1:1000, DSHB). HRP-conjugated anti-mouse and anti-rabbit antibodies were used as secondary antibodies (1:5000, Cell Signaling). For signal detection, Immobilon Chemiluminescent HRP Substrate (Millipore) was used. […] All experiments were done under low serum (2.5% FBS) conditions (38). […] Lysates were boiled for 10 minutes in SDS Sample buffer and reducing agent, resolved on SDS-Page and transferred using standard protocols. Cell lysates are prepared similarly. Protein concentrations were determined using BioRad Protein Assay Dye Reagent following manufacturer's instructions.

Cn1c(=O)n(-c2ccc(C(C)(C)C#N)cc2)c2c3cc(-c4cnc5ccccc5c4)ccc3ncc21 [BEZ235]
dissemination in combination with bortezomib ([1]; four-hit model): synergized | dissemination after sequential treatment, bortezomib followed by BEZ235 ([1]; four-hit model, sequential feeding): effective; also recorded: much more effective than concurrent feeding | dissemination, response to BEZ235 [2]: sufficient to direct resistance to BEZ235 | sensitivity to BEZ235 after pretreatment with bortezomib (HCT116 cells; HCT116 cells, bortezomib pretreatment for 24 hours): sensitize the cells to BEZ235 | BEZ235 dose response, parental versus PI3K wildtype line (HCT116 cells; HCT116 parental (Ras and PI3K active) vs HCT116-WT): more resistant to BEZ235 than its PI3K pathway wildtype counterpart, HCT116-WT | dissemination, response to BEZ235 [3]: rendered the animals sensitive to BEZ235 | p-4EBP levels ([4]; combined with bortezomib): reduced p-4EBP back to baseline levels | sensitivity to BEZ235 after pretreatment with bortezomib (DLD-1 cells; DLD-1 cells, bortezomib pretreatment for 24 hours): Increased sensitivity; also recorded: rendered DLD-1 cells sensitive to BEZ235 treatment; also recorded: sensitize the cells to BEZ235 | BEZ235 dose response, parental versus PI3K wildtype line (DLD-1 cells; DLD-1 parental (Ras and PI3K active) vs DLD-1-WT): more resistant to BEZ235 than the derivative line DLD-1-WT

Cc1[nH]c2ccccc2c1CCNCc1ccc(/C=C/C(=O)NO)cc1 [LBH589]
distant migration (dissemination into the abdominal cavity) [1]: not against ras^G12V p53^RNAi pten^RNAi apc^RNAi at non-toxic doses | distant migration (dissemination into the abdominal cavity) [5]: effective against ras^G12V

O=c1cc(N2CCOCC2)oc2c(-c3ccccc3)cccc12 [LY294002, 2-(4-morpholinyl)-8-phenyl-4H-1-benzopyran-4-one]
dissemination in combination with bortezomib ([1]; four-hit model): synergized | p-4EBP levels ([4]; combined with bortezomib): reduced p-4EBP back to baseline levels

Oc1cccc(-c2nc(N3CCOCC3)c3oc4ncccc4c3n2)c1 [P1103]
dissemination in combination with bortezomib ([1]; four-hit model): synergized

CC(C)C[C@H](NC(=O)[C@H](Cc1ccccc1)NC(=O)c1cnccn1)B(O)O [bortezomib]
animals killed at doses showing efficacy [6]: more than 70 % of the animals | distant migration (dissemination into the abdominal cavity) [1]: only showed efficacy at doses that otherwise killed more than 70% of the animals | viability after bortezomib pre-treatment alone (HCT116 cells; HCT116 cells, doses that sensitize to BEZ235): does not affect the viability; also recorded: has no effect on viability | PI3K pathway activation status (PI3K pathway): activated the PI3K pathway | PI3K and TORC1 activity ([4]; low doses of bortezomib): directed upregulation of PI3K and TORC1 activity | p-4EBP levels ([4]; bortezomib treatment alone): increase in p-4EBP levels | viability after bortezomib pre-treatment alone (DLD-1 cells; DLD-1 cells): did not affect survival | viability after bortezomib pre-treatment alone (DLD-1 cells; DLD-1 cells, listed as Bortezomib): does not affect the viability; also recorded: has no effect on viability
